Experimental findings from patent US20090111778A1, “2-Keto-Oxazoles as Modulators of Fatty Acid Amide Hydrolase” (priority 2005, published 2009) are described below.

Counter-ions that a name gives are not always drawn.

For one test, the target named is T1, rat FAAH (Rattus norvegicus, UniProt P97612).
T1 construct: expressed in transfected cells
T1 sequence (P97612 1-579): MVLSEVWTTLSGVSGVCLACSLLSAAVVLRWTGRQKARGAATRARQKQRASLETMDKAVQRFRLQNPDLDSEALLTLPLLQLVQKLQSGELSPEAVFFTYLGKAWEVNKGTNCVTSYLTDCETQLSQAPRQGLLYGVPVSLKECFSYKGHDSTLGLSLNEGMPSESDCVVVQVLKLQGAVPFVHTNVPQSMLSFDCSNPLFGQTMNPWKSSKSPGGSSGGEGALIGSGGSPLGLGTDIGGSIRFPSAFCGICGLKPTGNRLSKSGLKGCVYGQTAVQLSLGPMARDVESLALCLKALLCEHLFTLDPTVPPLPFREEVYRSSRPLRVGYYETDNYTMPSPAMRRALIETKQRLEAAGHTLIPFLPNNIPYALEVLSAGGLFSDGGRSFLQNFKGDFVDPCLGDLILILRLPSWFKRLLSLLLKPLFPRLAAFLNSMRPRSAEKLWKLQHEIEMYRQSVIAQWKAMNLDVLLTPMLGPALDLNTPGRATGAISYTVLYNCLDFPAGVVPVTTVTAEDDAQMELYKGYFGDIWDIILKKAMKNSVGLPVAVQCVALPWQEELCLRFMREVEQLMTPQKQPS
Nature of the test: Assay Method 2: FAAH assay, hydrolysis of 3H-anandamide by homogenate of SK-N-MC cells transfected with rat FAAH. The class given is biochemical. As to conditions: T84 or transfected SK-N-MC cell homogenate, 3H-AEA tracer 80 nM, rt 1 h, pH 9. A digest of the protocol:
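Rat FAAH activity from homogenate of G418-selected, electroporated SK-N-MC clones was measured as release of radiolabelled ethanolamine from 3H-anandamide. After 1 h at rt, charcoal filtration retained substrate, and scintillation counting of the flow-through gave the read-out.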

Another test concerns the target T2, human FAAH (Homo sapiens, UniProt O00519).
T2 construct: expressed in transfected cells
T2 sequence (O00519 1-579): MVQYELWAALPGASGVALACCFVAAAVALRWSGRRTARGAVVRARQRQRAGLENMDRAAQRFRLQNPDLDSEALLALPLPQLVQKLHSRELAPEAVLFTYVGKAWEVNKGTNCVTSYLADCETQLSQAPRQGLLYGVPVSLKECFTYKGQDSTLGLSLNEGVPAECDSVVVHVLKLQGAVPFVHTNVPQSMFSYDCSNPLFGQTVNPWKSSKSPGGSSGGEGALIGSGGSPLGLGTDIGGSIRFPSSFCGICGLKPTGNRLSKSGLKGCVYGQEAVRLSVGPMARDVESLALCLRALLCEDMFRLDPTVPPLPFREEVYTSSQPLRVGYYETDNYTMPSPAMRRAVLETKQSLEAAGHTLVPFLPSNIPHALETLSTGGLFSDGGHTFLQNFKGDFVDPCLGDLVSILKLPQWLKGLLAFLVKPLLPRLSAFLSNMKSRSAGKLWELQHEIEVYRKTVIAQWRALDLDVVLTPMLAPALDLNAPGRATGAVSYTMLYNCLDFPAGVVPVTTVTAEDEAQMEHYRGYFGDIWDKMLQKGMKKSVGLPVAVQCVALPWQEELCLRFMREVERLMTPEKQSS
Kind of test: Assay Method 1: FAAH assay, hydrolysis of 3H-anandamide by homogenate of SK-N-MC cells transfected with human FAAH. The class given is biochemical. As to conditions: human FAAH; T84 or transfected SK-N-MC cell homogenate; 3H-AEA tracer 80 nM; rt 1 h; pH 9; read-out: Assay 1 IC50. A digest of the protocol:
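Homogenate of SK-N-MC cells stably expressing human FAAH (G418-selected clones) incubated with compound and 80 nM [1-3H-ethanolamine]anandamide for 1 h at rt. Released 3H-ethanolamine separated from substrate by activated-charcoal filtration, then counted by scintillation.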

By IC50 is commonly meant the midpoint of a concentration-inhibition curve. Turning to `O=C(CCCC1CCN(Cc2ccc(C(F)(F)F)c(F)c2)CC1)c1ncco1` [Example 137, 4-[1-(3-Fluoro-4-trifluoromethyl-benzyl)-piperidin-4-yl]-1-oxazol-2-yl-butan-1-one], the figures for the half-inhibitory concentration (IC50) against rat FAAH and at human FAAH were 380 nM and 10 nM, respectively.
On the same counts, the results for `CC(C)(C)CC(=O)N1CCC(CCCC(=O)c2ncco2)CC1` [Example 25, 3,3-Dimethyl-1-[4-(4-oxazol-2-yl-4-oxo-butyl)-piperidin-1-yl]-butan-1-one] are 320 nM and 90 nM.
In the same order, the values of `Cc1ccc(CC(=O)N2CCC(CCCC(=O)c3ncco3)CC2)cc1` [Example 38, 1-Oxazol-2-yl-4-[1-(2-p-tolyl-acetyl)-piperidin-4-yl]-butan-1-one] are 100 nM and 100 nM.
`CC(C)(C)OC(=O)N1CCC(CCCC(=O)c2ncc(-c3ccco3)o2)CC1` [Example 120, 4-[4-(5-Furan-2-yl-oxazol-2-yl)-4-oxo-butyl]-Piperidine-1-carboxylic acid tert-butyl ester]: the IC50 on rat FAAH was 21 nM; at human FAAH, 2 nM.
In the same order, the values of `O=C(CCCC1CCN(Cc2ccc(F)c(Cl)c2)CC1)c1ncco1` [Example 13, 4-[1-(3-Chloro-4-fluoro-benzyl)-piperidin-4-yl]-1-oxazol-2-yl-butan-1-one] are 180 nM and 50 nM.
In the same order, the values of `O=C(CCCC1CCN(Cc2ccc(N3CCCCC3)cc2)CC1)c1ncco1` [Example 103, 1-Oxazol-2-yl-4-[1-(4-piperidin-1-yl-benzyl)-piperidin-4-yl]-butan-1-one] are 250 nM and 108 nM.
In the same order, the values of `CCCCCCCCCN1CCC(CCCC(=O)c2ncco2)CC1` [Example 127, 4-(1-Nonyl-Piperidin-4-yl)-1-oxazol-2-yl-butan-1-one] are 57 nM and 8 nM.
In the case of `O=C(CCCC1CCN(C(=O)CCc2ccccc2)CC1)c1ncco1` [Example 36, 1-Oxazol-2-yl-4-[1-(3-phenyl-propionyl)-piperidin-4-yl]-butan-1-one], the values for the IC50 on rat FAAH and on human FAAH were 56 nM and 46 nM, respectively.
In the same order, the values of `COc1cccc(CN2CCC(CCCC(=O)c3ncco3)CC2)c1` [Example 17, 4-[1-(3-Methoxy-benzyl)-piperidin-4-yl]-1-oxazol-2-yl-butan-1-one] are 308 nM and 36 nM.
For `O=C(CCCC1CCN(Cc2ccc(-c3ccco3)nc2)CC1)c1ncco1` [Example 109, 4-[1-(6-Furan-2-yl-pyridin-3-ylmethyl)-piperidin-4-yl]-1-oxazol-2-yl-butan-1-one], the half-inhibitory concentration (IC50) was found to be 528 nM at rat FAAH and 55 nM at human FAAH.
On the same counts, the results for `Cc1ccc(CCC(=O)N2CCC(CCCC(=O)c3ncco3)CC2)cc1` [Example 44, 1-Oxazol-2-yl-4-[1-(3-p-tolyl-propionyl)-piperidin-4-yl]-butan-1-one] are 10 nM and 40 nM.
Regarding `O=C(O)c1cccc(-c2cnc(C(=O)CCCC3CCN(Cc4cccc(-c5ccccc5)c4)CC3)o2)n1` [Example 149, 6-{2-[4-(1-Biphenyl-3-ylmethyl-piperidin-4-yl)-butyryl]-oxazol-5-yl}-pyridine-2-carboxylic acid trifluoroacetic acid salt], the IC50 came to 2 nM against rat FAAH and 9 nM on human FAAH.
With `Cc1ccc2nc(Cl)c(CN3CCC(CCCC(=O)c4ncco4)CC3)cc2c1` [Example 98, 4-[1-(2-Chloro-6-methyl-quinolin-3-ylmethyl)-piperidin-4-yl]-1-oxazol-2-yl-butan-1-one], the results for the IC50 on rat FAAH and at human FAAH were 7 nM and 0.4 nM, respectively.
In the same order, the values of `O=C(CCCC1CCN(Cc2ccc(-c3ccccc3)cc2)CC1)c1ncco1` [Example 73, 4-(1-Biphenyl-4-ylmethyl-piperidin-4-yl)-1-oxazol-2-yl-butan-1-one] are 45 nM and 24 nM.
In the same order, the values of `O=C(CCCC1CCN(Cc2cccc(Br)n2)CC1)c1ncco1` [Example 77, 4-[1-(6-Bromo-pyridin-2-ylmethyl)-piperidin-4-yl]-1-oxazol-2-yl-butan-1-one] are 1000 nM and 313 nM.
Take `O=C(CCCC1CCN(C(=O)Cc2ccccc2Cl)CC1)c1ncco1` [Example 42, 4-{1-[2-(2-Chloro-Phenyl)-acetyl]-piperidin-4-yl}-1-oxazol-2-yl-butan-1-one]: the figures for the IC50 against rat FAAH and at human FAAH were 800 nM and 430 nM, respectively.
On the same counts, the results for `CC(C)(C)c1ccc(CN2CCC(CCCC(=O)c3ncco3)CC2)cc1` [Example 83, 4-[1-(4-tert-Butyl-benzyl)-piperidin-4-yl]-1-oxazol-2-yl-butan-1-one] are 84 nM and 7 nM.
In the same order, the values of `O=C(CCCC1CCN(Cc2ccc(Br)cc2)CC1)c1ncco1` [Example 91, 4-[1-(4-Bromo-benzyl)-piperidin-4-yl]-1-oxazol-2-yl-butan-1-one] are 270 nM and 45 nM.
On the same counts, the results for `O=C(CCCC1CCN(Cc2cc(F)c(F)c(F)c2)CC1)c1ncco1` [Example 131, 1-Oxazol-2-yl-4-[1-(3,4,5-trifluoro-benzyl)-piperidin-4-yl]-butan-1-one] are 760 nM and 88 nM.
`CC(C)Oc1cccc(CN2CCC(CCCC(=O)c3ncco3)CC2)c1` [Example 135, 4-[1-(3-Isopropoxy-benzyl)-piperidin-4-yl]-1-oxazol-2-yl-butan-1-one]: the figures for the concentration for half-maximal inhibition (IC50) against rat FAAH and at human FAAH were 9 nM and 5 nM, respectively.
As for `O=C(CCCC1CCN(C(=O)Cc2ccc(Cl)cc2)CC1)c1ncco1` [Example 40, 4-{1-[2-(4-Chloro-phenyl)-acetyl]-piperidin-4-yl}1-oxazol-2-yl-butan-1-one], the figures for the IC50 against rat FAAH and at human FAAH were 75 nM and 43 nM, respectively.
In the same order, the values of `CC(C)(C)OC(=O)N1CCC(CCCC(=O)c2ncc(-c3ccccn3)o2)CC1` [Example 119, 4-[4-Oxo-4-(5-pyridin-2-yl-oxazol-2-yl)-butyl]-piperidine-1-carboxylic acid tert-butyl ester] are 3 nM and 0.8 nM.
In the same order, the values of `O=C(CCCC1CCN(Cc2cccc(-c3ccccc3)c2)CC1)c1ncco1` [Example 72, 4-(1-Biphenyl-3-ylmethyl-piperidin-4-yl)-1-oxazol-2-yl-butan-1-one] are 2 nM and 0.9 nM.
On the same counts, the results for `Cc1ccccc1CCC(=O)N1CCC(CCCC(=O)c2ncco2)CC1` [Example 45, 1-Oxazol-2-yl-4-[1-(3-o-tolyl-propionyl)-piperidin-4-yl]-butan-1-one] are 130 nM and 109 nM.
For the compound `O=C(CCCC1CCN(Cc2ccc(N3CCOCC3)nc2)CC1)c1ncco1` [Example 107, 4-[1-(6-Morpholin-4-yl-pyridin-3-ylmethyl)-piperidin-4-yl]-1-oxazol-2-yl-butan-1-one], the half-inhibitory concentration (IC50) at rat FAAH came out at 2000 nM; on human FAAH it was 180 nM.
For the compound `CC(C)OC(=O)N1CCC(CCCC(=O)c2ncco2)CC1` [Example 69, 4-(4-Oxazol-2-yl-4-oxo-butyl)-piperidine-1-carboxylic acid isopropyl ester], the IC50 at rat FAAH is 9 nM; at human FAAH, 4 nM.
Take `O=C(CCCC1CCN(Cc2ccc(N3CCCC3)cc2)CC1)c1ncco1` [Example 102, 1-oxazol-2-yl-4-[1-(4-pyrrolidin-1-yl-benzyl)-piperidin-4-yl]-butan-1-one]: the IC50 on rat FAAH worked out at 3000 nM; at human FAAH it was 530 nM.
In the same order, the values of `CCOC(=O)N1CCC(CCCC(=O)c2ncco2)CC1` [Example 64, 4-(4-Oxazol-2-yl-4-oxo-butyl)-piperidine-1-carboxylic acid ethyl ester] are 14 nM and 6 nM.
